Measurements taken from patent publication US20210228562A1, “IRAK DEGRADERS AND USES THEREOF” (Kymera Therapeutics, Inc., priority 2019, published 2021).

Key:
Type in all cases: cell-based
[1] = target: T1, Ikaros (protein product of gene IKZF1) (Homo sapiens, UniProt Q13422+Q96SW2); assay: Quantification of Ikaros degradation in OCI-LY10 cells (quantitative immunoblotting); conditions: 6 h treatment
T1 construct: endogenous in cells; host or cells: OCI-LY10
Procedure: (§1) Degradation of Ikaros (protein product of gene IKZF1) and Aiolos (protein product of gene IKZF3) were determined by quantitative immunoblotting as follows. OCI-LY10 cells, 2×10^6 cells/well, were treated with listed concentrations of IRAK4 degraders or control compounds in 6 well plates for 6 h. Cells were collected, washed with cold PBS, lysed in RIPA buffer (Boston BioProducts BP-115D) with protease/phosphatase inhibitor cocktail (Roche 05892791001/Roche 04906837001) and centrifuged at 13000 RPM for 20 min to precipitate insoluble material. The supernatant fraction was diluted in SDS-PAGE loading buffer (Beyotime Bio P0015) and 20 μL of each sample was resolved on 4-12% Bis-Tris SDS-PAGE gels (Novex, WG1402BOX). Resolved samples were transferred to nitrocellulose membranes by wet electro-transfer method at 250 mV for 1.5 h. The membrane was blocked with LICOR blocking buffer (LI-COR, 927-50000) for 1 hour, washed three times with TBST (CST #99975) for 5 minutes each and incubated with primary antibody prepared in block buffer with 0.1% Tween-20 (Solarbio, P8220) at 4° C. overnight. Ikaros antibody was rabbit monoclonal D6N9Y (CST #14859), at 1:1000 dilution. Aiolos antibody was rabbit monoclonal D1C1E (CST #15103), at 1:1000 dilution. Signal was normalized to mouse anti-beta-Actin monoclonal 8H10D10 (CST #3700) used at 1:10,000 dilution. After incubation in primary antibodies, membranes were washed three times with TBST, 5 minutes each, incubated with fluorescently labeled secondary antibodies anti-rabbit IgG (Licor, 926-32211) at 1:5000 dilution; anti-mouse IgG (LI-COR, 926-68070) at 1:5000 dilution, for 1 hour at RT. After incubation in secondary, membranes were washed three times with TBST, 5 minutes each and read on LICOR Odyssey imager. Data was reported as signal for Ikaros or Aiolos relative to signal for actin, and normalized to DMSO-treated control.

[2] = target: T2, IRAK4 (Homo sapiens, UniProt Q9NWZ3); assay: IRAK4 MSD Degradation in OCI-LY10; conditions: OCI-LY10 cells, 24 hrs incubation; read-out: IRAK4 degradation in OCI-LY10 at 24 hrs: DC50
T2 construct: endogenous in cells; host or cells: OCI-LY10
T2 sequence (Q9NWZ3 1-460): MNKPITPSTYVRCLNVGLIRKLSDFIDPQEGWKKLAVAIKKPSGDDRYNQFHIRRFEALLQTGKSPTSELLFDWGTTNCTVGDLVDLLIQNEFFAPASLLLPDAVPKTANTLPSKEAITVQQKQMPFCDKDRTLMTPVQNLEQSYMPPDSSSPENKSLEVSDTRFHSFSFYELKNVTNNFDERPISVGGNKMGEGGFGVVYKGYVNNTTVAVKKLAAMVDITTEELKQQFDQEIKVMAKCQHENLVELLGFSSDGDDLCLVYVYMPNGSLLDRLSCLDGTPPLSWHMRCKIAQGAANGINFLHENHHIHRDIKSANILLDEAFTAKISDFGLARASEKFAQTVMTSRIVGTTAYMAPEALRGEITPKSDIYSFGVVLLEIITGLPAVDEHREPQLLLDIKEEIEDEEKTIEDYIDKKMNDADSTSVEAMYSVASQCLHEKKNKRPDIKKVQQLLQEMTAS
Procedure: Degradation of IRAK4 in OCI-LY10 was quantitatively measured using Meso Scale Discovery technology. OCI-LY10 cells were seeded in 96-well plates (Corning 3799) with a density of 300,000 cells per well in 100 μL fresh media. Compounds were then added to the assay plates with a final top concentration of 1 to 10 μM in a 1:3 dilution series with total of 8 doses. The assay plates were then incubated for 4 to 24 hours at 37° C. under 5% CO2. The assay plates were then centrifuged for 5 minutes and the cell pellets were treated with 100 μL/well RIPA lysis buffer (Boston BioProducts BP-115D) with proteinase inhibitors. To prepare MSD assay plates (Meso Scale Discovery Catalog number L15XA-3), the plates were coated with 2 μg/mL capture antibody (mouse Anti-IRAK4 antibody [2H9], ab119942) in PBS, at 40 μL/well. The plates were then incubated overnight at 4° C., washed 3 times with 150 μL/well TBST buffer (Cell Signaling Technology, Catalog number 9997S) and blocked with 150 μL/well blocking buffer (Meso Scale Discovery Catalog number R93BA-4). Cell lysates were then added to MSD assay plates and the plates were incubated at room temperature for 1 hour. The plates were then washed 3 times with 150 μL/well TBST buffer and 25 μL/well primary detection antibody (rabbit Anti-IRAK4 antibody [Y279], from Abcam. Catalog number ab32511, 1 μg/mL). The assay plates were then incubated at room temperature for 1 hour, washed 3 times with 150 μL/well TBST buffer and 25 μL/well secondary detection antibody, SULFO-TAG anti-rabbit antibody were added (anti rabbit antibody from Meso Scale Discovery, Catalog number R32AB-1, 1 μg/mL). The assay plates were then incubated at room temperature for 1 hour, washed 3 times with 150 μL/well TBST buffer, and 150 μL/well MSD reading buffer (Meso Scale Discovery catalog number R92TC-2) was added. The plates were then analyzed by a MSD reader (Meso Scale Discovery, Model Quick Plex SQ 120). The data was then analyzed by software Prism 7.0 from GraphPad and the dose-depended IRAK4 degradation were fit using a three-parameter logistic equation to calculate DC50.

[3] = test system: OCI-LY10 cells; assay: CTG Cell Viability Assay - OCI-LY10; conditions: Homo sapiens, 96 h, CellTiter-Glo, 4 days incubation
Procedure: Compound-mediated viability effect on OCI-LY10 or SUDHL-2 was quantitatively determined using the CellTiter-Glo® Luminescent Cell Viability Assay kit from Promega (Catalog number G7570) following manufacturer's recommended procedures. Briefly, OCI-LY10 or SUDHL-2 cells were seeded into 384 well plates (Grenier Bio-One, Catalog number 781080) with a density of 10,000 cells per well. Compounds were then added to the assay plate with final top concentration of 10 μM and 1:3 dilution series with total of 9 doses. The final DMSO concentration was normalized to 0.2%. The assay plates were incubated at 37° C. for 4 days under 5% CO2. Then the assay plate was equilibrated at room temperature for 10 minutes. To determine cell viability, 30 μL CellTiter Glo reagent was added to each well and the assay plate was centrifuged at 1000 rpm for 30 second, incubated at room temperature for 10 min, and analyzed by detecting the luminescence using a multimode plate reader (EnVision 2105, PerkinElmer). The data was then analyzed by software Prism 7.0 from GraphPad and the dose response curves were fit using a three-parameter logistic equation to calculate IC50.

[4] = target: T3, Aiolos (protein product of gene IKZF3) (Homo sapiens, UniProt Q96SW2+Q9UKT9); assay: Quantification of Aiolos degradation in OCI-LY10 cells (quantitative immunoblotting); conditions: 6 h treatment
T3 construct: endogenous in cells; host or cells: OCI-LY10
Procedure: as §1

T3 sequence (Q9UKT9 whole entry): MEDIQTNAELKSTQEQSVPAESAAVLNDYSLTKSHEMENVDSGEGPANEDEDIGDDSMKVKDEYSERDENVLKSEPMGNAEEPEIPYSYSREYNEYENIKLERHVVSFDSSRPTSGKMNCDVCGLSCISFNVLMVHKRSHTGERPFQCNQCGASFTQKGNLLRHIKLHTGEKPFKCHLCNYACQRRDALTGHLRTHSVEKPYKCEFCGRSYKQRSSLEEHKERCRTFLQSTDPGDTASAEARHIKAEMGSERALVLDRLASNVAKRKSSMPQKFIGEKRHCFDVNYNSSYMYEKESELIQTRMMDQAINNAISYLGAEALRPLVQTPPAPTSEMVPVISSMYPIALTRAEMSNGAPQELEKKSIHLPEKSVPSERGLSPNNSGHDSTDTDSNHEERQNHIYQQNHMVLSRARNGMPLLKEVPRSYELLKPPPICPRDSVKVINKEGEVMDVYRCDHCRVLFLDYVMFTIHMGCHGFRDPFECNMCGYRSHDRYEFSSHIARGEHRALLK
T3 sequence (Q96SW2 whole entry): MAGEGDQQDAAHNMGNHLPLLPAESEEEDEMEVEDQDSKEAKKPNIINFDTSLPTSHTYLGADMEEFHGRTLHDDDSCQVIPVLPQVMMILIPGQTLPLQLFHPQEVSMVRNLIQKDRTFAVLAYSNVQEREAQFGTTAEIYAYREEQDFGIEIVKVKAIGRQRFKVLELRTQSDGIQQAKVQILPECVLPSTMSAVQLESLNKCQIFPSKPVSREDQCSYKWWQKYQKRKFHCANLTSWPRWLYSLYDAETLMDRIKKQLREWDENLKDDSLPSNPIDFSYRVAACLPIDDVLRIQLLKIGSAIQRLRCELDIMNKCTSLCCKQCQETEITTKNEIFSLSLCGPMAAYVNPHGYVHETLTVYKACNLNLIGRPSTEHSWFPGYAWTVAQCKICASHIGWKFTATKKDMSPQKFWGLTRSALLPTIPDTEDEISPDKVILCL
T3 sequence (Q16531 whole entry partner): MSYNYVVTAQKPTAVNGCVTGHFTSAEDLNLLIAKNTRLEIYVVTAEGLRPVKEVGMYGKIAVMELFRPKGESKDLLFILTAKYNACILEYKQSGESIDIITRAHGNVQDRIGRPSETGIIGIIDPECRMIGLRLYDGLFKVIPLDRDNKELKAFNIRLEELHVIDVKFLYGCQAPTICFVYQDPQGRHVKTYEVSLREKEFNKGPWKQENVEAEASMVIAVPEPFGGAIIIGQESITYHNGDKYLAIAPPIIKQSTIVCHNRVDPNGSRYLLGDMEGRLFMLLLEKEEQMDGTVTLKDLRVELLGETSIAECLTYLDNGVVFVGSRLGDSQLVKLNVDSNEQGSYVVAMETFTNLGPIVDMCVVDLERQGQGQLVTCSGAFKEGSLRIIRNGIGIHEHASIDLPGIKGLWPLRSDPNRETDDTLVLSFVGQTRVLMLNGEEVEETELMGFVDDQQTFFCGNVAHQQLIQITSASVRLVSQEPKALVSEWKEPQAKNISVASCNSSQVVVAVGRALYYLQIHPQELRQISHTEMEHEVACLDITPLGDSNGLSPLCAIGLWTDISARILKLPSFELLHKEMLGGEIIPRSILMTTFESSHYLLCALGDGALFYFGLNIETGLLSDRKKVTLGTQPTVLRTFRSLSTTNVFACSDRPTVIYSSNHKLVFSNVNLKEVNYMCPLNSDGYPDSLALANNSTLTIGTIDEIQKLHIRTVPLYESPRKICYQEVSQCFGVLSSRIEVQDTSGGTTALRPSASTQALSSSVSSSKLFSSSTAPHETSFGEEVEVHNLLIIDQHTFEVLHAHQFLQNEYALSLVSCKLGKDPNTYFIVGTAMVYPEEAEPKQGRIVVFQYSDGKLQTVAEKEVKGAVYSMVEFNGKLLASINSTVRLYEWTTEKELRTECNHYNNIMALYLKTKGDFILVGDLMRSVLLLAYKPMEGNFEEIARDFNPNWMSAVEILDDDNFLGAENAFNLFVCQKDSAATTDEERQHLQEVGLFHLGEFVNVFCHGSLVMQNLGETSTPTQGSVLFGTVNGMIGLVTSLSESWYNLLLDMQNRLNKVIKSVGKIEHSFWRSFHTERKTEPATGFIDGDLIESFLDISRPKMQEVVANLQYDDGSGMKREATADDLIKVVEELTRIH
T1 sequence (Q13422 whole entry): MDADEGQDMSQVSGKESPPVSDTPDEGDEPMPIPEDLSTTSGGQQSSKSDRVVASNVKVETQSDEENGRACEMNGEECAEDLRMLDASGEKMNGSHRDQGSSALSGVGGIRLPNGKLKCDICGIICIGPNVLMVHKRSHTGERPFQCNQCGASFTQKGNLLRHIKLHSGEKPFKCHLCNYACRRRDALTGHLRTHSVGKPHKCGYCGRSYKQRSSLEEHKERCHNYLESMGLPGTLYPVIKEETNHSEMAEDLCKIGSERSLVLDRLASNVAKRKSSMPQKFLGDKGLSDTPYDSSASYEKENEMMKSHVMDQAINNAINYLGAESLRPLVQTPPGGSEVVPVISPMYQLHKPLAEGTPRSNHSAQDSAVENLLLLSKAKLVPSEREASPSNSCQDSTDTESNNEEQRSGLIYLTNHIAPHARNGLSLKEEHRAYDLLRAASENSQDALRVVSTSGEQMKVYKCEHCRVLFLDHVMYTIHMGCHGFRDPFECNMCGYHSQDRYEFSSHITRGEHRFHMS
T1 sequence (Q96SW2 whole entry): as the sequence (Q96SW2 whole entry) above
T1 sequence (Q16531 whole entry partner): as the sequence (Q16531 whole entry partner) above

| Structure (SMILES) | DC50 [1] [µM] | DC50 [2] [µM] | IC50 [3] [µM] | DC50 [4] [µM] |
| --- | --- | --- | --- | --- |
| Cc1cccc(C(=O)Nc2cc3sc([C@H]4CC[C@H](CN5CCC6(CC5)CC(CCNc5cccc7c5C(=O)N(C5CCC(=O)NC5=O)C7=O)C6)CC4)nc3cc2C(C)(C)O)n1 (stereo partly drawn) [I-22] | < 0.05 | 0.05 to 0.1 | < 0.05 | < 0.05 |
| COc1cc2nc([C@H]3CC[C@H](CN(C)[C@H]4CC[C@]5(CC4)C[C@@H](CNc4cccc6c4C(=O)N(C4CCC(=O)NC4=O)C6=O)C5)CC3)sc2cc1NC(=O)c1cccc(C(F)(F)F)n1 (stereo partly drawn) [I-21] | 0.05 to 0.1 | 0.1 to 0.5 | 0.1 to 0.5 | < 0.05 |
| CC(C)(O)c1cc2nc([C@H]3CC[C@H](CN4CC(CCNc5cccc6c5C(=O)N(C5CCC(=O)NC5=O)C6=O)C4)CC3)sc2cc1NC(=O)c1cccc(C(F)(F)F)n1 (stereo partly drawn) [I-45] | 0.1 to 0.5 | < 0.05 | 0.1 to 0.5 | 0.1 to 0.5 |
| CC(C)(O)c1cc2nc(N3CCC(CN4CCC5(CC4)CC(CNc4cccc6c4C(=O)N(C4CCC(=O)NC4=O)C6=O)C5)CC3)sc2cc1NC(=O)c1cccc(C(F)(F)F)n1 (stereo not drawn) [I-35] | < 0.05 | 0.05 to 0.1 | 0.5 to 1 | < 0.05 |
| CC(C)(O)c1cc2nc([C@H]3CC[C@H](CN4CC5(CC(CCNc6cccc7c6C(=O)N(C6CCC(=O)NC6=O)C7=O)C5)C4)CC3)sc2cc1NC(=O)c1ccc(C(F)(F)F)nn1 (stereo partly drawn) [I-55] | < 0.05 | > 1 | < 0.05 | < 0.05 |
| CN(C[C@H]1CC[C@H](c2nc3cc(C(C)(C)O)c(NC(=O)c4cccc(C(F)(F)F)n4)cc3s2)CC1)[C@H]1CC[C@]2(CC1)C[C@@H](CNc1cccc3c1C(=O)N(C1CCC(=O)NC1=O)C3=O)C2 (stereo partly drawn) [I-25] | < 0.05 | 0.05 to 0.1 | < 0.05 | < 0.05 |
| CC(C)(O)c1cc2nc([C@H]3CC[C@H](CN4CC5(CC(CNc6cccc7c6C(=O)N(C6CCC(=O)NC6=O)C7=O)C5)C4)CC3)sc2cc1NC(=O)c1cccc(C(F)(F)F)n1 (stereo partly drawn) [I-26] | < 0.05 | < 0.05 | 0.05 to 0.1 | < 0.05 |
| CN(C[C@H]1CC[C@H](c2nc3cc(C(C)(C)O)c(NC(=O)c4cccc(C(F)(F)F)n4)cc3s2)CC1)[C@H]1CC[C@@H](CCNc2cccc3c2C(=O)N(C2CCC(=O)NC2=O)C3=O)CC1 (stereo partly drawn) [I-46] | < 0.05 | 0.05 to 0.1 | < 0.05 | < 0.05 |
| CN(C[C@H]1CC[C@H](c2nc3cc(C(C)(C)O)c(NC(=O)c4cccc(C(F)(F)F)n4)cc3s2)CC1)[C@H]1CC[C@@H](CNc2cccc3c2C(=O)N(C2CCC(=O)NC2=O)C3=O)CC1 (stereo partly drawn) [I-48] | < 0.05 | > 1 | 0.05 to 0.1 | < 0.05 |
| CN(C[C@H]1CC[C@H](c2nc3cc(C(C)(C)O)c(NC(=O)c4cccc(C(F)(F)F)n4)cc3s2)CC1)[C@H]1CC[C@H](CCNc2cccc3c2C(=O)N(C2CCC(=O)NC2=O)C3=O)CC1 (stereo partly drawn) [I-27] | < 0.05 | < 0.05 | < 0.05 | < 0.05 |
| COc1cc2nc([C@H]3CC[C@H](CN4CC5(CC(CCNc6cccc7c6C(=O)N(C6CCC(=O)NC6=O)C7=O)C5)C4)CC3)sc2cc1-n1ccc2ccccc2c1=O (stereo partly drawn) [I-42] | < 0.05 | 0.05 to 0.1 | < 0.05 | < 0.05 |

Second part, the compound after the results:

| DC50 [1] [µM] | DC50 [2] [µM] | IC50 [3] [µM] | DC50 [4] [µM] | Structure (SMILES) |
| --- | --- | --- | --- | --- |
| < 0.05 | 0.1 to 0.5 | < 0.05 | < 0.05 | CC(C)(O)c1cc2nc([C@H]3CC[C@H](CN4CC5(CC(CCNc6cccc7c6C(=O)N(C6CCC(=O)NC6=O)C7=O)C5)C4)CC3)sc2cc1-n1ccc2ccccc2c1=O (stereo partly drawn) [I-40] |
| < 0.05 | 0.1 to 0.5 | < 0.05 | < 0.05 | CC(C)(O)c1cc2nc([C@H]3CC[C@H](CN4CC5(CC(CCNc6cccc7c6C(=O)N(C6CCC(=O)NC6=O)C7=O)C5)C4)CC3)sc2cc1NC(=O)c1ccnc(C(F)(F)F)n1 (stereo partly drawn) [I-54] |
| < 0.05 | < 0.05 | < 0.05 | < 0.05 | CC(C)(O)c1cc2nc([C@H]3CC[C@H](CN4CC5(CC(CCNc6cccc7c6C(=O)N(C6CCC(=O)NC6=O)C7=O)C5)C4)CC3)sc2cc1NC(=O)c1cccc(C(F)F)n1 (stereo partly drawn) [I-47] |
| < 0.05 | < 0.05 | < 0.05 | < 0.05 | Cc1cc(F)cc(C(=O)Nc2cc3sc([C@H]4CC[C@H](CN5CC6(CC(CCNc7cccc8c7C(=O)N(C7CCC(=O)NC7=O)C8=O)C6)C5)CC4)nc3cc2C(C)(C)O)n1 (stereo partly drawn) [I-33] |
| < 0.05 | < 0.05 | 0.05 to 0.1 | < 0.05 | COc1cc2nc([C@H]3CC[C@H](CN4CCC5(CC4)CC(Nc4cccc6c4C(=O)N(C4CCC(=O)NC4=O)C6=O)C5)CC3)sc2cc1NC(=O)c1cnn2cccnc12 (stereo partly drawn) [I-34] |
| < 0.05 | < 0.05 | < 0.05 | < 0.05 | CN(C[C@H]1CC[C@H](c2nc3cc(C(C)(C)O)c(NC(=O)c4cccc(C(F)(F)F)n4)cc3s2)CC1)[C@H]1CC[C@H](CNc2cccc3c2C(=O)N(C2CCC(=O)NC2=O)C3=O)CC1 (stereo partly drawn) [I-41] |
| < 0.05 | < 0.05 | < 0.05 | < 0.05 | C[C@H](CNc1cccc2c1C(=O)N(C1CCC(=O)NC1=O)C2=O)C1CC2(C1)CN(C[C@H]1CC[C@H](c3nc4cc(C(C)(C)O)c(NC(=O)c5cccc(C(F)(F)F)n5)cc4s3)CC1)C2 (stereo partly drawn) [I-31] |
